{"source": "patent US6432883B1", "about": "“Methods of treating plants with glycolic acid” (Emerald BioAgriculture Corporation, priority 2000, dated 2002)", "key": {"[1]": {"tested_on": "Sclerotinia minor", "test": "Lettuce pathogen stress: spray treatment, then stem inoculation, disease severity rating", "type": "in vivo", "conditions": "for Disease Severity Rating: lettuce, 1-9 rating scale", "procedure": "Waldmann's MTO dark green Grand Rapids leaf lettuce seed, lot#15529, was purchased from Johnny's Selected Seeds, Albion, Me., and grown 8 plants per 1 gallon pot, 1 pot per experimental unit and 3 experimental units per each of 4 replications. The plants were spray-treated first following “row closure” and again 14 days later with 8 ml per pot. The pathogen stress (Sclerotinia minor hyphal fragments and sclerotia, cultured on potato dextrose agar) was applied to the plant stems at the soil/stem interface at 14 days following the second treatment application.\nTreatments consisted of non-inoculated and inoculated groups of non-treated (NTC), water and 0.05% surfactant-blank (SB) controls and 15 and 60 ppm of glycolic acid.\nDisease assessment was made just prior to harvest by means of a 1-9 based rating scale. Extensive decomposition of the controls made accurate yield fresh and dry weights impossible. The results in Table 1 below show the data for each treatment and the rating scale definitions."}, "[2]": {"tested_on": "Erysiphe graminis/Ooidium", "test": "Wheat pathogen stress: disease index on leaves and heads", "type": "in vivo", "conditions": "for Disease Index Heads / Disease Index Leaves: wheat, (1-7 severity rating)(% incidence)/100", "procedure": "Kulm wheat seed, lot CR, was purchased from Albert Lea Seed House, Albert Lea, Minn. and grown 100 plants per 1 gallon pot, 3 pots per experimental unit and 1 experimental unit per each of 6 replications. The plants were spray-treated first at late-tillering to jointing and again at “in boot” to anthesis with 8 ml solution per pot. Aerial application of the pathogen stress (Erysiphe graminis/Ooidium conidia cultured on other Kulm wheat plants infected by incoming natural inoculum) was made to the plants at 14 days following the first treatment application, in addition to other naturally occurring inoculum.\nTreatments consisted of non-inoculated and inoculated groups of non-treated (NTC), water and 0.05% surfactant-blank (SB) controls and 5, 25, and 50 ppm of glycolic acid.\nDisease assessment was made 3 days prior to head harvesting using a 1-7 based severity scale and % incidence. A disease index [(1-7 based severity rating)(% incidence)/100] was created to better describe the compound effect. The results in Table 3 below show the data for each treatment and the rating scale definitions."}, "[3]": {"tested_on": "cabbage", "test": "Cabbage cold shock and heat treatment: fresh and dry weights", "type": "in vivo", "parameters": "Avg. Fresh Weights ± SD / Avg. Dry Weights ± SD: unit not given here", "text": "Seeds of Heads Up cabbage were obtained from Harris Seeds, Rochester, N.Y. and grown in 7″×5¼″×2¼″ (17.78 cm×13.34×5.72 cm) Kord inserts (Park Seeds, Greenwood, S.C.) containing Bacto potting soil (Michigan Peat Company, Houston, Tex.). After plants had germinated, cabbage seedlings were thinned to six plants per insert. Inserts were kept in 12″×8¾″ (30.48 cm×22.23 cm) perma nest trays (Park Seed) with two inserts per tray. Each treatment consisted of three replicate trays containing a total of eighteen cabbage plants. After 12 days, some of the plant were sprayed with Glypure® at 25 ppm, 100 ppm, and 200 ppm. Treated plants were given a second application of Glypure® 7 days later. Untreated and treated plants were subjected to freeze and heat shock treatments 24 hours later. Cold shock was administered by exposing plants to −3° C. for 2 hours and 20 minutes. Heat treatment was provided by placing plants in an oven for 5 hours at 46.5° C. One week following the temperature treatments, the plants were harvested and the fresh and dry weights were determined."}, "[4]": {"tested_on": "cabbage", "test": "Cabbage drought stress: fresh and dry weights", "type": "in vivo", "conditions": "drought, water withheld 13 days, 5, 15, 50 ppm", "procedure": "Market Prize, F1 cabbage seed, lot 88955, as described in example 7, was treated identically as in example 7, except that drought stress was imposed by withholding water 7 days following the second spray and continuing to withhold water for 13 sequential days thereafter. Drought tolerance was assessed by measuring both the fresh and dried weights of the plants."}, "[5]": {"tested_on": "Sclerotinia minor", "test": "Colony radius of plant pathogen on amended potato dextrose agar", "type": "cell-based", "conditions": "in PDA, 4 days, about 23° C., FIG. 5", "text": "Sclerotinia minor culture SaM-18 was received from Krishna Subbarro, Ph.D., Univ. Calif., Davis. Potato dextrose agar (PDA) powder was purchased from Baltimore Biological Laboratory, Inc. (BBL), ammonium glycolate and glycolic acid from DuPont Specialty Chemicals and BreakThru® surfactant from Goldschmidt Chemical Corp.\nPDA was made, poured into sterile disposable petri dishes (100×15 mm) and inoculated with S. minor sclerotia to start new cultures on day zero. These cultures had reached an appropriate stage of maturation for use for use in the test after two weeks of growth. Multiple 1 liter containers of PDA were made and autoclaved on day 14. These PDA containers remained in the circulating water bath at 46° C. until the solutions were ready for addition (about 2 hrs.). The glycolic acid-containing compositions were added to the 46° C. PDA through a syringe-tip 0.2 μm-pore sterile filtration disc in a positive laminar-flow sterile hood and thoroughly mixed before returning to the 46° C. water bath to await pouring. Stacks of 22 dishes were poured for each medium type and allowed to solidify and cool overnight.\nOn day 15, soft, white to gray, sclerotial clumps of hyphae were picked from the culture dishes with heat sterilized forceps and one clump was transferred to the center of each test medium dish. Twenty dishes of each inoculated medium were stacked and replaced into the plastic sleeves they were originally packaged in for incubation at room temperature (about 23° C.). After 4 days of growth, some of the cultures had just reached the edges of the medium. The radius of each colony was measure in mm.\nTreatments were water controls, 0.05% surfactant controls, 5, 15, 50, 75 and 100 ppm of glycolic acid (F12) and 5, 15, 50, 100 and 750 ppm of ammonia-neutralized glycolic acid (F18; i.e., ammonium glycolate)."}, "[6]": {"conditions": "Cold Stress (−3° C., 2 hours 20 minutes), 25 ppm"}, "[7]": {"conditions": "Cold Stress (−3° C., 2 hours 20 minutes), 200 ppm"}, "[8]": {"conditions": "Heat Stress (46.5° C., 5 hours), 25 ppm"}, "[9]": {"conditions": "Heat Stress (46.5° C., 5 hours), 200 ppm"}}, "note": "Marks after values point to notes of the source that are not given here.", "data": [{"smiles": "O=C(O)CO", "note": "[glycolic acid]", "values": [{"measurement": "Disease Severity Rating", "setting": "[1]; 15 ppm spray", "result": "3.0*"}, {"measurement": "Disease Severity Rating", "setting": "[1]; 60 ppm spray", "result": "3.5*"}, {"measurement": "disease severity versus control lettuce", "setting": "[1]; all glycolic acid treatments (15 and 60 ppm), α=0.05", "result": "statistically significant (α=0.05) decrease"}, {"measurement": "disease severity observed in wheat heads versus control wheat", "setting": "[2]; 5 ppm and 25 ppm, α=0.05", "result": "statistically significant (α=0.05) decrease"}, {"measurement": "Disease Index Heads", "setting": "[2]; 5 ppm spray", "result": "2.5*"}, {"measurement": "Disease Index Leaves", "setting": "[2]; 5 ppm spray", "result": "7.6*"}, {"measurement": "Disease Index Heads", "setting": "[2]; 25 ppm spray", "result": "13.4*"}, {"measurement": "Disease Index Leaves", "setting": "[2]; 25 ppm spray", "result": "7.0*"}, {"measurement": "Disease Index Heads", "setting": "[2]; 50 ppm spray", "result": "18.6*"}, {"measurement": "Disease Index Leaves", "setting": "[2]; 50 ppm spray", "result": 36.9}, {"measurement": "disease severity in wheat leaves versus control wheat", "setting": "[2]; all glycolic acid treated wheat, α=0.05", "result": "statistically significant (α=0.05) decrease"}, {"measurement": "reduction in fresh and dry weights caused by the adverse temperatures, versus untreated plants", "setting": "[3]; 200 ppm", "result": "statistically significantly lower"}, {"measurement": "Avg. Dry Weights ± SD", "setting": "[3]; [6]", "result": "3.1 ± 0.1"}, {"measurement": "Avg. Fresh Weights ± SD", "setting": "[3]; [6]", "result": "28.6 ± 2.7"}, {"measurement": "Avg. Dry Weights ± SD", "setting": "[3]; [7]", "result": "3.2 ± 0.2"}, {"measurement": "Avg. Fresh Weights ± SD", "setting": "[3]; [7]", "result": "31.4 ± 1.3"}, {"measurement": "Avg. Dry Weights ± SD", "setting": "[3]; [8]", "result": "2.5 ± 0.3"}, {"measurement": "Avg. Fresh Weights ± SD", "setting": "[3]; [8]", "result": "10.2 ± 2.6"}, {"measurement": "Avg. Dry Weights ± SD", "setting": "[3]; [9]", "result": "3.5 ± 0.1"}, {"measurement": "Avg. Fresh Weights ± SD", "setting": "[3]; [9]", "result": "15.2 ± 0.6"}, {"measurement": "fresh weight of the cabbage compared to controls", "setting": "[4]; FIG. 3", "result": "statistically significantly increased"}, {"measurement": "dry weight of the cabbage compared to controls", "setting": "[4]; FIG. 4", "result": "statistically significantly increased"}, {"measurement": "growth of Sclerotinia minor (colony radius) compared to controls", "setting": "[5]", "result": "statistically significantly increased the growth"}]}]}
